According to article PMC6413339 (EBioMedicine, 2019):
Like-named read-outs stand apart in the source and are kept apart here.

Tests used:
FLT3 = biological target: T1, FLT3 (Homo sapiens, UniProt P36888); test: Cell-free kinase assay, single dose (Reaction Biology, ADP-Glo); type: biochemical; details: inhibitor 500 nM; 100 μM ATP; average of duplicate
T1 construct: purchased Invitrogen PV3182
T1 sequence (P36888 564-993 limits assumed): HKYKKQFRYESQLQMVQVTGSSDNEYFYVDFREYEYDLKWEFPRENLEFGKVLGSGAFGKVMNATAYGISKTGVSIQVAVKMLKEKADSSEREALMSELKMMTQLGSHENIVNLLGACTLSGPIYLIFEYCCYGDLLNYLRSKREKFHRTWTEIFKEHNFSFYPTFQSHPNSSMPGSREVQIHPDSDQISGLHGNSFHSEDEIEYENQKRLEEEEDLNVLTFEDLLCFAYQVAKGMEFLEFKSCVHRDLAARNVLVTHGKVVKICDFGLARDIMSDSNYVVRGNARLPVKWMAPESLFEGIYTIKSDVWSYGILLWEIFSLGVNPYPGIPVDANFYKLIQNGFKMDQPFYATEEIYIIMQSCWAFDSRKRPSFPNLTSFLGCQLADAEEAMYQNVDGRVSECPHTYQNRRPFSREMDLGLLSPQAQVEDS
Procedure: Cell-free kinase activity assays were performed at Reaction Biology Corporation. […] DMSO was used as control. […] Experiments were performed in duplicates. The concentrations of kinases and substrates used in the assays are indicated on Table S1. Kinase activity was quantified using the ADP-Glo™ Kinase Assay System (Promega, Madison, WI) following the manufacturer's recommendations.

Src = biological target: T2, Src (Homo sapiens, UniProt P12931); test: Cell-free kinase assay (Reaction Biology, ADP-Glo); type: biochemical; details: inhibitor 500 nM; 100 μM ATP; average of duplicate
T2 construct: purchased Invitrogen PR4336E
T2 sequence (P12931 whole entry): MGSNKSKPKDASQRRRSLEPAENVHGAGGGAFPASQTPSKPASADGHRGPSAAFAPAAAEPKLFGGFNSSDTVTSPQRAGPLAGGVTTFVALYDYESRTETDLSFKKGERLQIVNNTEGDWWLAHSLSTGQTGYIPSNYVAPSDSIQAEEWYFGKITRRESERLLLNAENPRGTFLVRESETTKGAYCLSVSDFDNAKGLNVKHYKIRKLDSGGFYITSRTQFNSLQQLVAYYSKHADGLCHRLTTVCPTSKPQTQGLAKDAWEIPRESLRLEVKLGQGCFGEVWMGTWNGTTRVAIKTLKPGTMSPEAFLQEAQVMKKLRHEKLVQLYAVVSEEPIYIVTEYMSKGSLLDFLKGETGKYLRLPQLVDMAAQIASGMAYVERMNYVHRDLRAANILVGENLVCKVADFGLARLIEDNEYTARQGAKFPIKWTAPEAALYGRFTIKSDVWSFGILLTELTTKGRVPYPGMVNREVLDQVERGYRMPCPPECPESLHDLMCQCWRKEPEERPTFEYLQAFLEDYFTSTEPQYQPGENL
Procedure: Cell-free kinase activity assays were performed at Reaction Biology Corporation. Briefly, kinases were incubated with substrates, 100 μM ATP and a 3-fold serial dilution of compounds starting at 1 μM. DMSO was used as control. […] Experiments were performed in duplicates. The concentrations of kinases and substrates used in the assays are indicated on Table S1. Kinase activity was quantified using the ADP-Glo™ Kinase Assay System (Promega, Madison, WI) following the manufacturer's recommendations.

MV4–11-luc cells = test: In vivo efficacy, orthotopic human AML model; details: 25 mg/kg i.p. three times a week (MWF); NSG or NRG mice
Procedure: The in vivo efficacy of compounds was assessed in an orthotopic human AML model in NSG (NOD scid gamma, NOD-scid IL2Rg^null) mice that were bred at University of Maryland Baltimore (mating pairs acquired from Jackson Laboratories; Maine). […]. Three days later, engraftment was assessed by imaging on a Xenogen IVIS-2 Imaging System (Alameda) after an intraperitoneal (IP) injection of 150 mg/kg luciferin. Mice were sorted into four or five groups (n = 5) so that mean intensity (i.e., disease burden) was equal. Dosing started on day of sorting. Compounds were dissolved in 85% PBS (pH 7.4) buffer containing 10% DMSO and 5% Cremophore. The vehicle (buffer without compounds) was used as control. Mice were injected 3 to 5 days per week via IP injection. Mice were weighed on day of dosing and imaged once per week. […]. All mice were housed in a 12-h light/dark cycle with access to food and water ad libitum. Studies were performed with Institutional Animal Care and Use Committee (UMB and Purdue University) approval.
[…]. Female mice were dosed daily for 5 days via intraperitoneal injection and then monitored for an additional week for weight loss, a sign of toxicity in mice. […] To evaluate the anti-leukemic efficacy in vivo, six-week-old female NSG or NRG mice were injected intravenously with FLT3-ITD expressing acute myeloid leukemia cells (MV4–11), expressing luciferase. […] Dosing (i.p) with the compounds was then started. The mice were dosed with 25 mg/kg of the compounds three times a week (MWF). […] […].

[1] = tested on: MOLM-14 (ITD, D835Y) cells; test: Antiproliferative activity (CellTitre-Blue, 72 h); type: cell-based, human; details: 72 h incubation, triplicates, read-out: IC50 (mean ±SD, nM) MOLM-14 (ITD, D835Y)
Procedure: (§1) Cells were seeded into 96-well tissue culture-treated plates at 2.0 × 10^4 cells/mL for up to 24 h. DMSO stock solutions of compounds were serially diluted first in DMSO and subsequently into RPMI before being added to the cell cultures in triplicates, with 10 μM being the highest tested concentration. The plates were incubated for 72 h as above. The CellTitre-Blue assay (Promega, Madison WI) was then added to the cultures and incubated a further 4 h before the fluorescence measured following the manufacturers recommendations. The fluorescence data from compounds were normalized to that DMSO and the resulting data fitted to a non-linear regression equation to obtain IC50 using GraphPad Prism 5.0 Software (La Jolla, CA, USA).

MV4–11 cells = test: Antiproliferative activity (CellTitre-Blue, 72 h); type: cell-based, human; details: for IC50: 72 h incubation, triplicates, read-out: IC50 (mean ±SD, nM) MV4–11
Procedure: as §1

[2] = tested on: MOLM-14 (ITD, F691 L) cells; test: Antiproliferative activity (CellTitre-Blue, 72 h); type: cell-based, human
Procedure: as §1

MOLM-14 cells = test: Antiproliferative activity (CellTitre-Blue, 72 h); type: cell-based, human; details: 72 h incubation, triplicates, read-out: IC50 (mean ±SD, nM) MOLM-14
Procedure: as §1

[3] = Homo sapiens, MOLM-14, 72 h, 72 h incubation, triplicates, read-out: IC50 (mean ±SD, nM) MOLM-14 (ITD, F691 L)

| inhibition at 0.5 µM (FLT3) | inhibition at 0.5 µM (Src) | IC50 ([1]; Homo sapiens, MOLM-14, 72 h) | IC50 [2, 3] | IC50 (MOLM-14 cells; Homo sapiens, MOLM-14) | SMILES | further results |
| --- | --- | --- | --- | --- | --- | --- |
| 99% | 99% | – | – | – | Cc1ccc(C(=O)Nc2ccc(CN3CCN(C)CC3)c(C(F)(F)F)c2)cc1C#Cc1ccc(N)nc1 [Compound 2] | – |
| 81% | 99% | – | – | – | Cc1ccc(C(=O)Nc2ccc(CN3CCN(C)CC3)c(C(F)(F)F)c2)cc1C#Cc1nc(Br)cnc1N [Compound 3] | – |
| 93% | 100% | – | – | – | Cc1ccc(C(=O)Nc2ccc(CN3CCN(C)CC3)c(C(F)(F)F)c2)cc1C#Cc1c(N)ncc2ccccc12 [Compound 4] | – |
| 90% | 99% | – | – | – | Cc1ccc(C(=O)Nc2ccc(CN3CCN(C)CC3)c(C(F)(F)F)c2)cc1C#Cc1c(N)ncc2ccc(F)cc12 [Compound 6] | – |
| 98% | 98% | 10.4 ± 0.3 nM | 6.9 ± 0.05 nM | 2.3 ± 0.1 nM | Cc1ncc(C(=O)Nc2ccc(CN3CCN(C)CC3)c(C(F)(F)F)c2)cc1C#Cc1c(N)ncc2ccc(Cl)cc12 [Compound 9] | IC50 (MV4–11 cells): 0.4 ± 0.04 nM; IC50 (MV4–11 cells; Homo sapiens, MV4-11, 72 h): ~0.5 nM |
| 75% | 93% | – | – | – | Cc1cnc(C(=O)Nc2ccc(CN3CCN(C)CC3)c(C(F)(F)F)c2)cc1C#Cc1c(N)ncc2ccc(Cl)cc12 [Compound 10] | – |
| 43% | 16% | ≤ 15 nM | ≤ 15 nM | – | Cc1ccc(C(=O)Nc2ccc(CN3CCN(C)CC3)c(C(F)(F)F)c2)nc1C#Cc1c(N)ncc2ccc(Cl)cc12 [Compound 11] | – |
| 98% | 100% | – | – | – | Cc1ccc2cnc(N)c(C#Cc3cc(C(=O)Nc4ccc(CN5CCN(C)CC5)c(C(F)(F)F)c4)ccc3C)c2c1 [Compound 12] | – |
| 100% | 98% | 4.7 ± 0.03 nM | 1.1 ± 0.04 nM | 1.4 ± 0.03 nM | Cc1ccc2cnc(N)c(C#Cc3cc(C(=O)Nc4ccc(CN5CCN(C)CC5)c(C(F)(F)F)c4)cnc3C)c2c1 [Compound 13] | IC50 (MV4–11 cells; Homo sapiens, MV4-11, 72 h): 0.4 ± 0.006 nM |
| 98% | 99% | – | – | – | COc1ccc2c(N)ncc(C#Cc3cc(C(=O)Nc4ccc(CN5CCN(C)CC5)c(C(F)(F)F)c4)cnc3C)c2c1 [Compound 14] | – |
| 98% | 100% | – | – | – | Cc1ncc(C(=O)Nc2ccc(CN3CCN(C)CC3)c(C(F)(F)F)c2)cc1C#Cc1cnc(N)c2ccccc12 [Compound 16] | – |
| 98% | 98% | – | – | – | Cc1ncc(C(=O)Nc2ccc(CN3CCN(C)CC3)c(C(F)(F)F)c2)cc1C#Cc1cnc(N)c2ccc(F)cc12 [Compound 17] | – |
| 80% | 20% | – | – | – | Cc1ncc(C(=O)Nc2ccc(CN3CCN(C)CC3)c(C(F)(F)F)c2)cc1C#Cc1cnc(NC2CC2)c2ncccc12 [Compound 21] | – |
| 100% | 98% | 3 ± 0.3 nM | 1.8 ± 0.08 nM | 0.2 ± 0.01 nM | Cc1ncc(C(=O)Nc2ccc(CN3CCN(C)CC3)c(C(F)(F)F)c2)cc1C#Cc1cncc2ncccc12 [Compound 24] | IC50 (MV4–11 cells; Homo sapiens, MV4-11, 72 h): 0.2 ± 0.009 nM |

The next lines start with the molecule.

| SMILES | inhibition at 0.5 µM (FLT3) | inhibition at 0.5 µM (Src) | IC50 ([1]; Homo sapiens, MOLM-14, 72 h) | IC50 [2, 3] | IC50 (MOLM-14 cells; Homo sapiens, MOLM-14) | further results |
| --- | --- | --- | --- | --- | --- | --- |
| Cc1ccc(C(=O)Nc2ccc(CN3CCN(C)CC3)c(C(F)(F)F)c2)cc1C#Cc1cccnc1N [Compound 1] | 96% | 99% | – | – | – | – |
| Cc1ncc(C(=O)Nc2ccc(CN3CCN(C)CC3)c(C(F)(F)F)c2)cc1C#Cc1c(N)ncc2ccccc12 [Compound 5] | 99% | 100% | 13 ± 0.4 nM | 1.5 ± 0.1 nM | 2.8 ± 0.02 nM | reduction in leukemia burden (MV4–11-luc cells): > 99%; IC50 (MV4–11 cells; Homo sapiens, MV4-11, 72 h): 0.4 ± 0.004 nM |
| Cc1ccc(C(=O)Nc2ccc(CN3CCN(C)CC3)c(C(F)(F)F)c2)cc1C#Cc1c(N)ncc2ccc(Cl)cc12 [Compound 8] | 97% | – | – | – | – | IC50 (MV4–11 cells; Homo sapiens, MV4-11, 72 h): ~0.5 nM |
| Cc1ccc(C(=O)Nc2ccc(CN3CCN(C)CC3)c(C(F)(F)F)c2)cc1C#Cc1cnc(N)c2ccccc12 [Compound 15] | 100% | 97% | ≤ 15 nM | ≤ 15 nM | – | – |
| COc1ccc2cnc(N)c(C#Cc3cc(C(=O)Nc4ccc(CN5CCN(C)CC5)c(C(F)(F)F)c4)cnc3C)c2c1 [Compound 18] | – | – | – | – | – | IC50 [1]: 11.1 ± 0.08 nM; IC50 (MV4–11 cells): 0.2 ± 0.001 nM; IC50 MV4-11 (MV4–11 cells; Table S2, superscript d, the values are: IC50): 0.2 nM; IC50 ([2]; 72 h incubation, triplicates, read-out: IC50 (mean ±SD, nM) MOLM-14 (ITD, F691 L)): 1.1 ± 0.04 nM; IC50 ([2]; Table S2, superscript g, the values are: IC50): 1.1 nM; IC50 (MOLM-14 cells): 0.2 ± 0.002 nM; %FLT3 inhibition (FLT3): 97%; %Src inhibition (Src): 98% |
| Cc1ccc(C(=O)Nc2ccc(CN3CCN(C)CC3)c(C(F)(F)F)c2)cc1C#Cc1cnc(N)c2ncccc12 [Compound 19] | 99% | 98% | – | – | – | – |
| Cc1ccc(C(=O)Nc2ccc(CN3CCN(C)CC3)c(C(F)(F)F)c2)cc1C#Cc1cncc2ccccc12 [Compound 22] | 98% | 100% | – | – | – | – |
| Cc1ccc(C(=O)Nc2ccc(CN3CCN(C)CC3)c(C(F)(F)F)c2)cc1C#Cc1cncc2ncccc12 [Compound 23] | 99% | 99% | – | – | – | – |
| CC1(COc2ccc3c(c2)ncn3-c2ccc3cccc(N4CCC(N)CC4)c3n2)COC1 [Crenolanib, reference compound] | 99% | – | 6.6 ± 0.03 nM | 15.6 ± 0.4 nM | 4.5 ± 0.8 nM | IC50 (MV4–11 cells; Homo sapiens, MV4-11, 72 h): 3.1 ± 0.06 nM |
| CO[C@@H]1[C@H](N(C)C(=O)c2ccccc2)C[C@H]2O[C@]1(C)n1c3ccccc3c3c4c(c5c6ccccc6n2c5c31)C(=O)NC4 [Midostaurin, reference compound] | – | – | – | – | 16.1 ± 0.02 nM | – |
| Cc1ccc(C(=O)Nc2ccc(CN3CCN(C)CC3)c(C(F)(F)F)c2)cc1C#Cc1cnc2cccnn12 [Ponatinib, reference compound] | – | – | – | – | 0.5 ± 0.1 nM | IC50 ([1]; Homo sapiens, MOLM-14): 52.6 ± 0.3 nM; IC50 (MV4–11 cells; Homo sapiens, MV4-11): 0.1 ± 0.001 nM; IC50 ([2]; Homo sapiens, MOLM-14, 72 h incubation, triplicates, read-out: IC50 (mean ±SD, nM) MOLM-14 (ITD, F691 L)): 6.8 ± 0.03 nM |
| CC(C)(C)c1cc(NC(=O)Nc2ccc(-c3cn4c(n3)sc3cc(OCCN5CCOCC5)ccc34)cc2)no1 [Quizartinib, reference compound] | – | – | 23 ± 0.5 nM | 48.5 ± 0.6 nM | 0.5 ± 0.02 nM | IC50 (MV4–11 cells; Homo sapiens, MV4-11, 72 h): 0.4 ± 0.02 nM |
